Results taken from patent US7442714B2, “Amlodipine gentisate and a method of its preparation” (SK Chemicals Co., Ltd., priority 2003, dated 2008).
Counter-ions that a name gives are not always drawn.

Legend:
[1] = Test for stability: HPLC content of active ingredient after storage at temperature and humidity; assay type: physicochemical
Text: This experiment is designed to confirm the stability of amlodipine salt. It is essential for a drug to have sufficient stability in order to be formulated into a specific form of preparation. In particular, it is especially important to have an atmospheric stability for a drug to be formulated into tablets or capsules while aqueous stability is more important when a drug is formulated into an injection type of preparation.

Light stability (UV) = assay type: physicochemical
Text: Table 4 represents the result of light stability of amlodipine gentisate salts of the present invention compared to that of amlodipine besylate and the total amount of UV light was 200 W·h/m^2.

[2] = test system: Rats with congenital hypertension (SHR); test: Anti-hypertension activity, tail-cuff method; assay type: in vivo, rat; conditions: oral
Protocol: Rats with congenital hypertension (SHR, male, 13-14 weeks old) were purchased from Charles River Co. (Japan). […] SHR were used those having systolic blood pressure of 170 mmHg or higher and each experimental group was composed of 8 rats. Blood pressure was measured using Multichannel 8000 (TSE Co., Germany) according to the tail-cuff method. […] […] The result of measurements was indicated in S.E.M. Statistical analysis of the measurements was performed by using Sigma Stat program (Jandel Co., USA) with respect to unpaired t-test and one-way analysis of variance (ANOVA) and the second evaluation was performed via Dunnett multiple comparisons test.

rat = conditions: oral; cited from earlier work
wild bird = conditions: oral; cited from earlier work
[3] = Sprague-Dawley (printed: Sprague Dowry), rat, in vivo, po, 10 mg/kg
Protocol: The blood samples were centrifuged for 2 min at 14,000 rpm to obtain blood plasma. 80 μL of the blood plasma was mixed with 240 μL of methanol and vortexed for 10 sec and centrifuged again for 2 min at 14,000 rpm.

[4] = UV, total amount of UV light 200 W·h/m^2

## CCOC(=O)C1=C(COCCN)NC(C)=C(C(=O)OC)C1c1ccccc1Cl.O=S(=O)(O)c1ccccc1 (racemic) [(±)-amlodipine besylate]
[1]; 2 weeks
  Content of active ingredients at 40° C. with 75% humidity: 99.9%
  Content of active ingredients at 60° C. with 75% humidity: 98.7%
[1]; 4 weeks
  Content of active ingredients at 40° C. with 75% humidity: 99.8%
  Content of active ingredients at 60° C. with 75% humidity: 97.4%
[1]; 8 weeks
  Content of active ingredients at 40° C. with 75% humidity: 99.2%
  Content of active ingredients at 60° C. with 75% humidity: 98.1%
[1]; initial
  Content of active ingredients at 40° C. with 75% humidity: 100%
  Content of active ingredients at 60° C. with 75% humidity: 100%
Light stability (UV); [4]
  Content of active ingredients: 88.3%
Light stability (UV); initial
  Content of active ingredients: 100%
[2]
  Time after administration at which a significant decrease in blood pressure started: 30 min
  Time after administration at which the decrease in blood pressure reached the peak: 1 h
  Time after administration until which the anti-hypertension effect was significant: 6 h
[2]; 2.5 mg/kg
  Decrease in Blood Pressure (maximum anti-hypertension effect): 20.8±7.3%
[2]; 5.0 mg/kg
  Decrease in Blood Pressure (maximum anti-hypertension effect): 28.6±7.5%

## CCOC(=O)C1=C(COCCN)NC(C)=C(C(=O)OC)[C@@H]1c1ccccc1Cl.O=S(=O)(O)c1ccccc1 [S-(−)-amlodipine besylate]
[1]; 2 weeks
  Content of active ingredients at 40° C. with 75% humidity: 101.1%
  Content of active ingredients at 60° C. with 75% humidity: 100.1%
[1]; 4 weeks
  Content of active ingredients at 40° C. with 75% humidity: 101.7%
  Content of active ingredients at 60° C. with 75% humidity: 98.5%
[1]; 8 weeks
  Content of active ingredients at 40° C. with 75% humidity: 101.6%
  Content of active ingredients at 60° C. with 75% humidity: 96.3%
[1]; initial
  Content of active ingredients at 40° C. with 75% humidity: 100%
  Content of active ingredients at 60° C. with 75% humidity: 100%
Light stability (UV); [4]
  Content of active ingredients: 90.1%
Light stability (UV); initial
  Content of active ingredients: 100%

## O=S(=O)(O)c1ccccc1 [Benzenesulfonic acid, benzenesulfonic acid]
rat
  LD50: 890 µL/kg
Wild bird
  LD50: 75 mg/kg

## CCOC(=O)C1=C(COCCN)NC(C)=C(C(=O)OC)[C@@H]1c1ccccc1Cl [S-(−)-amlodipine gentisate, (S)-(−)-Amlodipine Gentisate Salt]
[1]; 2 weeks
  Content of active ingredients at 40° C. with 75% humidity: 102.9%
  Content of active ingredients at 60° C. with 75% humidity: 100.1%
[1]; 4 weeks
  Content of active ingredients at 40° C. with 75% humidity: 103.5%
  Content of active ingredients at 60° C. with 75% humidity: 103.0%
[1]; 8 weeks
  Content of active ingredients at 40° C. with 75% humidity: 102.3%
  Content of active ingredients at 60° C. with 75% humidity: 99.9%
[1]; initial
  Content of active ingredients at 40° C. with 75% humidity: 100%
  Content of active ingredients at 60° C. with 75% humidity: 100%
Light stability (UV); [4]
  Content of active ingredients: 100.7%
Light stability (UV); initial
  Content of active ingredients: 100%
Light stability (UV); under UV or visible light
  Light stability compared to conventional amlodipine besylate salts: superior light stability
[2]
  Time after administration at which a significant decrease in blood pressure started: 30 min
  Time after administration at which the decrease in blood pressure reached the peak: 1 h
  Time after administration until which the anti-hypertension effect was significant: 6 h
[2]; 1.25 mg/kg
  Decrease in Blood Pressure (maximum anti-hypertension effect): 19.8±5.5%
[2]; 2.5 mg/kg
  Decrease in Blood Pressure (maximum anti-hypertension effect): 24.5±7.9%
[3]
  Period of highest concentration in blood after administration: 4 to 6 h
